Activity calls are given as the source filed them.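 Rule for the calls: active = half-effect potency at or under 10 µM with a response span of at least 30% after curve fit checks such as Hill slope 0.5 to 2; inactive = the rest.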

Cell division control protein 42 homolog (Homo sapiens), sequence (P60953 whole entry, looked up): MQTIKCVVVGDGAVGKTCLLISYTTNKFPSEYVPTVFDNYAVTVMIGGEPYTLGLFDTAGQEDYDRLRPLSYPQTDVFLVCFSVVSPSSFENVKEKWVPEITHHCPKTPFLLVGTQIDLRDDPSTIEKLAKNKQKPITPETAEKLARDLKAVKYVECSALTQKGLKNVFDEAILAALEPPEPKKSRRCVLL

The first assay addresses Cell division control protein 42 homolog (Homo sapiens) (UniProt P60953). Description: wild-type Cdc42 fluorescent nucleotide binding blockers – biochemical, wildtype, bead multiplex, flow cytometry, round 2, SAR follow-up (AID 588626). Conditions: Bead-based flow cytometry, Bodipy-FL-GTP binding, EDTA buffer.
For `CC1Cc2c(sc(NC(=S)NC(=O)c3ccccc3)c2C(=O)O)CO1` (stereo not drawn), the EC50 was 17.8 µM.

As for `Cc1cccc(C(=O)NC(=S)Nc2sc3c(c2C(=O)O)CC(C)(C)OC3)c1`, the EC50 was 5.87 µM.

Consider `Cc1ccc(C(=O)NC(=S)Nc2sc3c(c2C(=O)O)CC(C)(C)OC3)cc1`, for which the EC50 is 0.528 µM.

`CC1(C)Cc2c(sc(NC(=S)NC(=O)c3cccc(Br)c3)c2C(=O)O)CO1`: the EC50 came out at 19.5 µM.

In the case of `CC(C)(C)C1Cc2c(sc(NC(=S)NC(=O)c3ccccc3)c2C(=O)O)CO1` (stereo not drawn), the EC50 was 1.57 µM.

In the case of `CC1(C)Cc2c(sc(NC(=S)NC(=O)c3ccccc3F)c2C(=O)O)CO1`, the concentration giving a half-maximal response (EC50) was 7.37 µM.

In the case of `Cc1ccccc1C(=O)NC(=S)Nc1sc2c(c1C(=O)O)CC(C)(C)OC2`, the EC50 is 2.66 µM.

With `CC1(C)Cc2c(sc(NC(=S)NC(=O)C3CCCCC3)c2C(=O)O)CO1`, the EC50 is 2.64 µM.

Still in this assay, the particulars now being: Bead-based flow cytometry, Bodipy-FL-GTP binding, EDTA buffer; at 100 µM (top of the series).
For `CC1(C)Cc2c(sc(NC(=S)NC(=O)c3cccs3)c2C(=O)O)CO1`, the “% response (GTP binding remaining)” value is “inactive”.

`CC1(C)Cc2c(sc(NC(=S)NC(=O)c3ccccc3Br)c2C(=O)O)CO1`: the “% response (GTP binding remaining)” value is “inactive”.

For the compound `COc1ccccc1C(=O)NC(=S)Nc1sc2c(c1C(=O)O)CC(C)(C)OC2`, the “% response (GTP binding remaining)” value was “inactive”.

As for `COc1ccc(C(=O)NC(=S)Nc2sc3c(c2C(=O)O)CC(C)(C)OC3)cc1`, the “% response (GTP binding remaining)” value was “inactive”.

With `CC1(C)Cc2c(sc(NC(=O)NC(=O)c3ccccc3)c2C(=O)O)CO1`, the “% response (GTP binding remaining)” value is “inactive”.

Regarding `COc1cccc(C(=O)NC(=S)Nc2sc3c(c2C(=O)O)CC(C)(C)OC3)c1`, the “% response (GTP binding remaining)” value was “inactive”.

`CC1(C)Cc2c(sc(NC(=S)NC(=O)c3cccc(F)c3)c2C(=O)O)CO1`: the “% response (GTP binding remaining)” value is “inactive”.

`O=C(NC(=S)Nc1sc2c(c1C(=O)O)CCOC2)c1ccccc1`: the “% response (GTP binding remaining)” value was “inactive”.

Take `CC1(C)Cc2c(sc(NC(=S)Nc3ccccc3)c2C(=O)O)CO1`: the “% response (GTP binding remaining)” value is “inactive”.

Regarding `O=C(NC(=S)Nc1sc2c(c1C(=O)O)CC1(CCCC1)OC2)c1ccccc1`, the “% response (GTP binding remaining)” value is “inactive”.

Regarding `CCC1(C)Cc2c(sc(NC(=S)NC(=O)c3ccccc3)c2C(=O)O)CO1` (stereo not drawn), the “% response (GTP binding remaining)” value is “inactive”.

With `CC1(C)Cc2c(sc(NC(=S)NC(=O)c3ccc(F)cc3)c2C(=O)O)CO1`, the “% response (GTP binding remaining)” value was “inactive”.

As to `CC1(C)Cc2c(sc(NC(=S)NC(=O)c3ccco3)c2C(=O)O)CO1`, the “% response (GTP binding remaining)” value is “inactive”.

With `CC1(C)CCc2sc(NC(=S)NC(=O)c3ccccc3)c(C(=O)O)c2C1`, the “% response (GTP binding remaining)” value is “inactive”.

Take `CC1(C)Cc2c(sc(NC(=S)NC(=O)c3ccc(Br)cc3)c2C(=O)O)CO1`: the “% response (GTP binding remaining)” value was “inactive”.

For the origin of these results see PubChem BioAssay AID588626 (NMMLSC, 2011).
